In the supplement of paper PMC10307832:

Columns and labels:
Assay in all cases: relative viability (nuclei count vs DMSO), 5 days (fraction); higher = more cells survive
[1] = tested on: 201T
How it was run: (§1)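 Relative viability is defined as nuclei in treated wells over nuclei in vehicle wells. Duplicate plates were run and medians reported. Lung cancer cell lines in 1536-well plates were dosed by pin tool one day after seeding, with one drug or with a fixed anchor-drug dose plus five library-drug doses (not always all listed) in √10 steps, and nuclei were counted after 5 days.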

[2] = tested on: BEN
How it was run: as §1

[3] = tested on: CAL-12T
How it was run: as §1

[4] = tested on: HCC-78
How it was run: as §1

[5] = tested on: HOP-62
How it was run: as §1

[6] = tested on: LCLC-97TM1
How it was run: as §1

[7] = tested on: LOU-NH91
How it was run: as §1

[8] = tested on: NCI-H1355
How it was run: as §1

[9] = tested on: NCI-H1395
How it was run: as §1

[10] = tested on: NCI-H1563
How it was run: as §1

[11] = tested on: NCI-H1651
How it was run: as §1

[12] = tested on: NCI-H1793
How it was run: as §1

[13] = tested on: NCI-H1915
How it was run: as §1

[14] = tested on: NCI-H1944
How it was run: as §1

[15] = tested on: NCI-H2126
How it was run: as §1

[16] = tested on: NCI-H2347
How it was run: as §1

[17] = tested on: NCI-H3122
How it was run: as §1

[18] = tested on: NCI-H322M
How it was run: as §1

[19] = tested on: NCI-H441
How it was run: as §1

[20] = tested on: NCI-H650
How it was run: as §1

[21] = tested on: NCI-H838
How it was run: as §1

[22] = tested on: SK-LU-1
How it was run: as §1

[23] = tested on: SW 1573
How it was run: as §1

Question: What does the source list for Cc1csc(=NC2CCCCC2)n1/N=C/c1ccc(O)c(O)c1O [MIM1] + N=C(N)NC(=N)NCCc1ccccc1 [Phenformin] (partner 250 µM)?
Answer: relative viability ([1]; first compound 0.2 µM): 0.456; relative viability ([1]; first compound 0.6325 µM): 0.414; relative viability ([1]; first compound 2 µM): 0.451; relative viability ([1]; first compound 6.325 µM): 0.345; relative viability ([1]; first compound 20 µM): 0.321; relative viability ([2]; first compound 0.2 µM): 0.261; relative viability ([2]; first compound 0.6325 µM): 0.236; relative viability ([2]; first compound 2 µM): 0.236; relative viability ([2]; first compound 6.325 µM): 0.28; relative viability ([2]; first compound 20 µM): 0.213; relative viability ([3]; first compound 0.2 µM): 0.614; relative viability ([3]; first compound 0.6325 µM): 0.467; relative viability ([3]; first compound 2 µM): 0.586; relative viability ([3]; first compound 6.325 µM): 0.372; relative viability ([3]; first compound 20 µM): 0.119; relative viability ([4]; first compound 0.2 µM): 0.81; relative viability ([4]; first compound 0.6325 µM): 0.53; relative viability ([4]; first compound 2 µM): 0.628; relative viability ([4]; first compound 6.325 µM): 0.597; relative viability ([4]; first compound 20 µM): 0.347; relative viability ([5]; first compound 0.2 µM): 0.641; relative viability ([5]; first compound 0.6325 µM): 0.603; relative viability ([5]; first compound 2 µM): 0.624; relative viability ([5]; first compound 6.325 µM): 0.608; relative viability ([5]; first compound 20 µM): 0.157; relative viability ([6]; first compound 0.2 µM): 0.445; relative viability ([6]; first compound 0.6325 µM): 0.434; relative viability ([6]; first compound 2 µM): 0.413; relative viability ([6]; first compound 6.325 µM): 0.312; relative viability ([6]; first compound 20 µM): 0.142; relative viability ([7]; first compound 0.2 µM): 0.695; relative viability ([7]; first compound 0.6325 µM): 0.709; relative viability ([7]; first compound 2 µM): 0.625; relative viability ([7]; first compound 6.325 µM): 0.548; relative viability ([7]; first compound 20 µM): 0.302; relative viability ([8]; first compound 0.2 µM): 0.46; relative viability ([8]; first compound 0.6325 µM): 0.351; relative viability ([8]; first compound 2 µM): 0.443; relative viability ([8]; first compound 6.325 µM): 0.399; relative viability ([8]; first compound 20 µM): 0.274; relative viability ([9]; first compound 0.2 µM): 0.45; relative viability ([9]; first compound 0.6325 µM): 0.444; relative viability ([9]; first compound 2 µM): 0.459; relative viability ([9]; first compound 6.325 µM): 0.399; relative viability ([9]; first compound 20 µM): 0.346; relative viability ([10]; first compound 0.2 µM): 0.672; relative viability ([10]; first compound 0.6325 µM): 0.734; relative viability ([10]; first compound 2 µM): 0.706; relative viability ([10]; first compound 6.325 µM): 0.631; relative viability ([10]; first compound 20 µM): 0.478; relative viability ([11]; first compound 0.2 µM): 0.351; relative viability ([11]; first compound 0.6325 µM): 0.275; relative viability ([11]; first compound 2 µM): 0.39; relative viability ([11]; first compound 6.325 µM): 0.291; relative viability ([11]; first compound 20 µM): 0.165; relative viability ([12]; first compound 0.2 µM): 0.389; relative viability ([12]; first compound 2 µM): 0.351; relative viability ([12]; first compound 6.325 µM): 0.373; relative viability ([12]; first compound 20 µM): 0.302; relative viability ([13]; first compound 0.2 µM): 0.421; relative viability ([13]; first compound 0.6325 µM): 0.306; relative viability ([13]; first compound 2 µM): 0.344; relative viability ([13]; first compound 6.325 µM): 0.295; relative viability ([13]; first compound 20 µM): 0.22; relative viability ([14]; first compound 0.2 µM): 0.208; relative viability ([14]; first compound 0.6325 µM): 0.206; relative viability ([14]; first compound 2 µM): 0.149; relative viability ([14]; first compound 6.325 µM): 0.163; relative viability ([14]; first compound 20 µM): 0.104; relative viability ([15]; first compound 0.2 µM): 0.512; relative viability ([15]; first compound 0.6325 µM): 0.524; relative viability ([15]; first compound 2 µM): 0.54; relative viability ([15]; first compound 6.325 µM): 0.45; relative viability ([15]; first compound 20 µM): 0.391; relative viability ([16]; first compound 0.2 µM): 0.435; relative viability ([16]; first compound 0.6325 µM): 0.32; relative viability ([16]; first compound 2 µM): 0.387; relative viability ([16]; first compound 6.325 µM): 0.39; relative viability ([16]; first compound 20 µM): 0.288; relative viability ([17]; first compound 0.2 µM): 0.364; relative viability ([17]; first compound 0.6325 µM): 0.371; relative viability ([17]; first compound 2 µM): 0.355; relative viability ([17]; first compound 6.325 µM): 0.195; relative viability ([17]; first compound 20 µM): 0.143; relative viability ([18]; first compound 0.2 µM): 0.905; relative viability ([18]; first compound 0.6325 µM): 0.809; relative viability ([18]; first compound 2 µM): 0.766; relative viability ([18]; first compound 6.325 µM): 0.735; relative viability ([18]; first compound 20 µM): 0.36; relative viability ([19]; first compound 0.2 µM): 0.914; relative viability ([19]; first compound 2 µM): 0.865; relative viability ([19]; first compound 6.325 µM): 0.543; relative viability ([19]; first compound 20 µM): 0.203; relative viability ([20]; first compound 0.2 µM): 0.477; relative viability ([20]; first compound 0.6325 µM): 0.389; relative viability ([20]; first compound 2 µM): 0.474; relative viability ([20]; first compound 6.325 µM): 0.412; relative viability ([20]; first compound 20 µM): 0.241; relative viability ([21]; first compound 0.2 µM): 0.543; relative viability ([21]; first compound 0.6325 µM): 0.621; relative viability ([21]; first compound 2 µM): 0.562; relative viability ([21]; first compound 6.325 µM): 0.354; relative viability ([21]; first compound 20 µM): 0.14; relative viability ([22]; first compound 0.2 µM): 0.533; relative viability ([22]; first compound 0.6325 µM): 0.579; relative viability ([22]; first compound 2 µM): 0.617; relative viability ([22]; first compound 6.325 µM): 0.405; relative viability ([22]; first compound 20 µM): 0.393; relative viability ([23]; first compound 0.2 µM): 0.377; relative viability ([23]; first compound 0.6325 µM): 0.455; relative viability ([23]; first compound 2 µM): 0.442; relative viability ([23]; first compound 6.325 µM): 0.25; relative viability ([23]; first compound 20 µM): 0.081
